The results in this text go back to US9006455B2 (Bristol-Myers Squibb Company, priority 2009, dated 2015).

For orientation: EC50 means the concentration that produces a half-maximal response.

In one test the test system is HCV 1b genotype. As to the kind of experiment: HCV Replicon assay (HCV 1b genotype). As to conditions: Hepatitis C virus; HCV 1b genotype replicon; read-out: EC50. The class given is cell-based. How it is done: An HCV Replicon assay was utilized in the present disclosure, and was prepared, conducted and validated as described in commonly owned PCT/US2006/022197 and in O'Boyle et al., Antimicrob. Agents Chemother., 49(4):1346-1353 (April 2005). Assay methods incorporating luciferase reporters have also been used as described (Apath.com).
HCV-neo replicon cells and replicon cells containing resistance substitutions in the NS5A region were used to test the currently described family of compounds. The compounds were determined to have differing degrees of reduced inhibitory activity on cells containing mutations vs. the corresponding inhibitory potency against wild-type cells. Thus, the compounds of the present disclosure can be effective in inhibiting the function of the HCV NS5A protein and are understood to be as effective in combinations as previously described in application PCT/US2006/022197 and commonly owned WO 04/014852. It should be understood that the compounds of the present disclosure can inhibit multiple genotypes of HCV. […] In one embodiment, compounds of the present disclosure are inhibitory versus 1a, 1b, 2a, 2b, 3a, 4a, and 5a genotypes.
In general terms: In antiviral work, replicon cells carry a viral genome segment that copies itself.
For the compound `COC(=O)N[C@H](C(=O)N(C)[C@@H](C)c1ncc(-c2ccc(-c3ccc4cc(-c5cnc([C@H](C)N(C)C(=O)[C@@H](NC(=O)OC)C(C)C)[nH]5)ccc4c3)cc2)[nH]1)C(C)C` [Example 126, Methyl((1S)-1-(((1S)-1-(4-(4-(6-(2-((1S)-1-(((2S)-2-((methoxycarbonyl)amino)-3-methylbutanoyl)(methyl)amino)ethyl)-1H-imidazol-4-yl)-2-naphthyl)phenyl)-1H-imidazol-2-yl)ethyl)(methyl)carbamoyl)-2-methylpropyl)carbamate], the concentration giving a half-maximal response (EC50) worked out at 0.654 nM.
On the same count and under the same terms, under `COc1cccc2c(C(=O)N3[C@@H]4C[C@@H]4C[C@H]3c3ncc(C#Cc4ccc5cc(-c6cnc([C@@H]7C[C@H]8C[C@H]8N7C(=O)c7nc(Cl)cc8c(OC)cccc78)[nH]6)ccc5c4)[nH]3)nc(Cl)cc12` [Example 93, 3-Chloro-1-(((1R,3S,5R)-3-(4-(6-((2-((1R,3S,5R)-2-((3-chloro-5-methoxy-1-isoquinolinyl)carbonyl)-2-azabicyclo[3.1.0]hex-3-yl)-1H-imidazol-4-yl)ethynyl)-2-naphthyl)-1H-imidazol-2-yl)-2-azabicyclo[3.1.0]hex-2-yl)carbonyl)-5-methoxyisoquinoline] stands 40 nM; under `COC(=O)N[C@H](C(=O)N1CCC[C@H]1c1nc2ccc(-c3ccc4cc(-c5ccc6nc([C@@H]7CCCN7C(=O)[C@@H](NC(=O)OC)C7CCOCC7)[nH]c6c5)ccc4c3)cc2[nH]1)C(C)C` [Example 27, Methyl((1S)-2-((2S)-2-(5-(6-(2-((2S)-1-((2S)-2-((methoxycarbonyl)amino)-3-methylbutanoyl)-2-pyrrolidinyl)-1H-benzimidazol-5-yl)-2-naphthyl)-1H-benzimidazol-2-yl)-1-pyrrolidinyl)-2-oxo-1-(tetrahydro-2H-pyran-4-yl)ethyl)carbamate], 0.00477 nM; under `COC(=O)N[C@H](C(=O)N1[C@@H]2C[C@@H]2C[C@H]1c1ncc(-c2ccc(-c3ccc4nc(-c5cnc([C@@H]6C[C@H]7C[C@H]7N6C(=O)[C@@H](NC(=O)OC)C(C)C)[nH]5)ccc4c3)cc2)[nH]1)C(C)C` [Example 80, methyl((1S)-1-(((1R,3S,5R)-3-(4-(6-(4-(2-((1R,3S,5R)-2-((2S)-2-((methoxycarbonyl)amino)-3-methylbutanoyl)-2-azabicyclo[3.1.0]hex-3-yl)-1H-imidazol-4-yl)phenyl)-2-quinolinyl)-1H-imidazol-2-yl)-2-azabicyclo[3.1.0]hex-2-yl)carbonyl)-2-methylpropyl)carbamate], 0.00108 nM.
Take `COC(=O)N[C@H](C(=O)N1CCCC[C@H]1c1nc(-c2ccc(-c3ccc4cc(-c5c[nH]c([C@@H]6CCCCN6C(=O)[C@@H](NC(=O)OC)C(C)C)n5)ccc4c3)cc2)c[nH]1)C(C)C` [Example 118, Methyl((1S)-1-(((2S)-2-(4-(4-(6-(2-((2S)-1-((2S)-2-((methoxycarbonyl)amino)-3-methylbutanoyl)-2-piperidinyl)-1H-imidazol-4-yl)-2-naphthyl)phenyl)-1H-imidazol-2-yl)-1-piperidinyl)carbonyl)-2-methylpropyl)carbamate]: the EC50 came to 0.0374 nM.

The same test, now with this note: Hepatitis C virus; HCV 1b genotype replicon; read-out: Range (EC50 values against HCV 1b).
As for `COC(=O)N[C@H](C(=O)N1[C@@H]2C[C@@H]2C[C@H]1c1ncc(-c2ccc3cc(C#Cc4cnc([C@@H]5C[C@H]6C[C@H]6N5C(=O)[C@@H](NC(=O)OC)C5CCOCC5)[nH]4)ccc3c2)[nH]1)C(C)C` [Example 96, Methyl((1S)-2-((1R,3S,5R)-3-(4-((6-(2-((1R,3S,5R)-2-((2S)-2-((methoxycarbonyl)amino)-3-methylbutanoyl)-2-azabicyclo[3.1.0]hex-3-yl)-1H-imidazol-4-yl)-2-naphthyl)ethynyl)-1H-imidazol-2-yl)-2-azabicyclo[3.1.0]hex-2-yl)-2-oxo-1-(tetrahydro-2H-pyran-4-yl)ethyl)carbamate], the half-maximal effective concentration (EC50) was 0.0101 to 1 nM.
On the same count and under the same terms, under `CC(C)(C)OC(=O)N1CCC[C@H]1c1nc(-c2ccc3cc(-c4c[nH]c([C@@H]5CCCN5C(=O)OC(C)(C)C)n4)ccc3c2)c[nH]1` [Intermediate 52, (2S,2′S)-tert-Butyl 2,2′-(4,4′-(naphthalene-2,6-diyl)bis(1H-imidazole-4,2-diyl))dipyrrolidine-1-carboxylate] stands 1.01 to 1000 nM.
On the same count and under the same terms, with `COC(=O)N[C@H](C(=O)N(C)[C@@H](C)c1ncc(-c2ccc(-c3ccc4cc(-c5cnc([C@H](C)N(C)C(=O)[C@@H](NC(=O)OC)C(C)C)[nH]5)ccc4c3)cc2)[nH]1)C(C)C` [Example 126, Methyl((1S)-1-(((1S)-1-(4-(4-(6-(2-((1S)-1-(((2S)-2-((methoxycarbonyl)amino)-3-methylbutanoyl)(methyl)amino)ethyl)-1H-imidazol-4-yl)-2-naphthyl)phenyl)-1H-imidazol-2-yl)ethyl)(methyl)carbamoyl)-2-methylpropyl)carbamate] the figure was 0.0101 to 1 nM; with `COC(=O)N[C@H](C(=O)N1CCC[C@H]1c1nc2ccc(-c3ccc4cc(-c5ccc6nc([C@@H]7CCCN7C(=O)[C@@H](NC(=O)OC)C7CCOCC7)[nH]c6c5)ccc4c3)cc2[nH]1)C1CCOCC1` [Example 26, Dimethyl(2,6-naphthalenediylbis(1H-benzimidazole-5,2-diyl(2S)-2,1-pyrrolidinediyl((1S)-2-oxo-1-(tetrahydro-2H-pyran-4-yl)-2,1-ethanediyl)))biscarbamate], 0.0101 to 1 nM; with `COC(=O)N[C@H](C(=O)N1[C@@H]2C[C@@H]2C[C@H]1c1ncc(C#Cc2ccc3cc(-c4cnc([C@@H]5CC[C@H](C)N5C(=O)[C@@H](NC(=O)OC)C5CCOCC5)[nH]4)ccc3c2)[nH]1)C1CCOCC1` [Example 98, Methyl((1S)-2-((2S,5S)-2-(4-(6-((2-((1R,3S,5R)-2-((2S)-2-((methoxycarbonyl)amino)-2-(tetrahydro-2H-pyran-4-yl)acetyl)-2-azabicyclo[3.1.0]hex-3-yl)-1H-imidazol-4-yl)ethynyl)-2-naphthyl)-1H-imidazol-2-yl)-5-methyl-1-pyrrolidinyl)-2-oxo-1-(tetrahydro-2H-pyran-4-yl)ethyl)carbamate], 0.0101 to 1 nM.
Same read-out and setting: with `O=C([C@@H](c1ccccc1)N1CCCCC1)N1CCC[C@H]1c1nc2ccc(-c3ccc4cc(-c5ccc6nc([C@@H]7CCCN7C(=O)[C@@H](c7ccccc7)N7CCCCC7)[nH]c6c5)ccc4c3)cc2[nH]1` [Example 7, 5,5′-(2,6-Naphthalenediyl)bis(2-((2S)-1-((2R)-2-phenyl-2-(1-piperidinyl)acetyl)-2-pyrrolidinyl)-1H-benzimidazole)] the figure was 0.0101 to 1 nM; with `COc1cccc2c(C(=O)N3[C@@H]4C[C@@H]4C[C@H]3c3ncc(C#Cc4ccc5cc(-c6cnc([C@@H]7C[C@H]8C[C@H]8N7C(=O)c7nc(Cl)cc8c(OC)cccc78)[nH]6)ccc5c4)[nH]3)nc(Cl)cc12` [Example 93, 3-Chloro-1-(((1R,3S,5R)-3-(4-(6-((2-((1R,3S,5R)-2-((3-chloro-5-methoxy-1-isoquinolinyl)carbonyl)-2-azabicyclo[3.1.0]hex-3-yl)-1H-imidazol-4-yl)ethynyl)-2-naphthyl)-1H-imidazol-2-yl)-2-azabicyclo[3.1.0]hex-2-yl)carbonyl)-5-methoxyisoquinoline], 1.01 to 1000 nM.
`COC(=O)N[C@H](C(=O)N1[C@@H]2C[C@@H]2C[C@H]1c1ncc(-c2ccc3cc(-c4ccc5nc([C@@H]6C[C@H]7C[C@H]7N6C(=O)[C@@H](NC(=O)OC)C6CCOCC6)[nH]c5c4)ccc3c2)[nH]1)C1CCOCC1` [Example 45, Methyl((1S)-2-((1R,3S,5R)-3-(4-(6-(2-((1R,3S,5R)-2-((2S)-2-((methoxycarbonyl)amino)-2-(tetrahydro-2H-pyran-4-yl)acetyl)-2-azabicyclo[3.1.0]hex-3-yl)-1H-benzimidazol-5-yl)-2-naphthyl)-1H-imidazol-2-yl)-2-azabicyclo[3.1.0]hex-2-yl)-2-oxo-1-(tetrahydro-2H-pyran-4-yl)ethyl)carbamate]: the concentration for a half-maximal effect (EC50) lay within 0.0101 to 1 nM.
Take `COC(=O)N[C@H](C(=O)N1[C@@H]2C[C@@H]2C[C@H]1c1nc(Cl)c(-c2ccc3cc(-c4ccc5nc([C@@H]6C[C@H]7C[C@H]7N6C(=O)[C@@H](NC(=O)OC)C6CCOCC6)[nH]c5c4)ccc3c2)[nH]1)C1CCOCC1` [Example 50, Methyl((1S)-2-((1R,3S,5R)-3-(4-chloro-5-(6-(2-((1R,3S,5R)-2-((2S)-2-((methoxycarbonyl)amino)-2-(tetrahydro-2H-pyran-4-yl)acetyl)-2-azabicyclo[3.1.0]hex-3-yl)-1H-benzimidazol-5-yl)-2-naphthyl)-1H-imidazol-2-yl)-2-azabicyclo[3.1.0]hex-2-yl)-2-oxo-1-(tetrahydro-2H-pyran-4-yl)ethyl)carbamate]: the concentration giving a half-maximal response (EC50) was 0.0101 to 1 nM.
Same read-out and setting: with `COC(=O)N[C@H](C(=O)N1CCC[C@H]1c1ncc(-c2ccc3cc(-c4ccc5c(ccc6nc([C@@H]7CCCN7C(=O)[C@@H](NC(=O)OC)C7CCOCC7)[nH]c65)c4)ccc3c2)[nH]1)C1CCOCC1` [Example 42] the figure was 0.0101 to 1 nM.
For the compound `COC(=O)N[C@H](C(=O)N1CCCC[C@H]1c1nc(-c2ccc(-c3ccc4cc(-c5c[nH]c([C@@H]6CCCCN6C(=O)[C@@H](NC(=O)OC)C(C)C)n5)ccc4c3)cc2)c[nH]1)C(C)C` [Example 118, Methyl((1S)-1-(((2S)-2-(4-(4-(6-(2-((2S)-1-((2S)-2-((methoxycarbonyl)amino)-3-methylbutanoyl)-2-piperidinyl)-1H-imidazol-4-yl)-2-naphthyl)phenyl)-1H-imidazol-2-yl)-1-piperidinyl)carbonyl)-2-methylpropyl)carbamate], the EC50 was 0.0101 to 1 nM.
Regarding `CN(C)[C@@H](C(=O)N1CCC[C@H]1c1nc2ccc(-c3ccc4cc(-c5ccc6nc([C@@H]7CCCN7C(=O)[C@@H](c7ccccc7)N(C)C)[nH]c6c5)ccc4c3)cc2[nH]1)c1ccccc1` [Example 8, (1R)-2-((2S)-2-(5-(6-(2-((2S)-1-((2R)-2-(Dimethylamino)-2-phenylacetyl)-2-pyrrolidinyl)-1H-benzimidazol-6-yl)-2-naphthyl)-1H-benzimidazol-2-yl)-1-pyrrolidinyl)-N,N-dimethyl-2-oxo-1-phenylethanamine], the EC50 fell in the range of 0.0101 to 1 nM.
The same measure, in the same setting: under `COC(=O)N[C@H](C(=O)N1[C@H](c2ncc(-c3ccc(-c4ccc5cc(-c6cnc([C@@H]7C[C@@H]8C[C@@H]8N7C(=O)[C@@H](NC(=O)OC)C(C)C)[nH]6)ccc5c4)cc3)[nH]2)C[C@@H]2C[C@@H]21)C(C)C` [Example 135, Methyl((1S)-1-(((1S,3S,5S)-3-(4-(4-(6-(2-((1S,3S,5S)-2-((2S)-2-((methoxycarbonyl)amino)-3-methylbutanoyl)-2-azabicyclo[3.1.0]hex-3-yl)-1H-imidazol-4-yl)-2-naphthyl)phenyl)-1H-imidazol-2-yl)-2-azabicyclo[3.1.0]hex-2-yl)carbonyl)-2-methylpropyl)carbamate] stands 0.0101 to 1 nM; under `CCN(CC)[C@@H](C(=O)N1[C@@H]2C[C@@H]2C[C@H]1c1nc2ccc(-c3ccc4cc(-c5ccc6nc([C@@H]7C[C@H]8C[C@H]8N7C(=O)[C@@H](c7ccccc7)N(CC)CC)[nH]c6c5)ccc4c3)cc2[nH]1)c1ccccc1` [Example 19, (1R)-2-((1R,3S,5R)-3-(5-(6-(2-((1R,3S,5R)-2-((2R)-2-(Diethylamino)-2-phenylacetyl)-2-azabicyclo[3.1.0]hex-3-yl)-1H-benzimidazol-6-yl)-2-naphthyl)-1H-benzimidazol-2-yl)-2-azabicyclo[3.1.0]hex-2-yl)-N,N-diethyl-2-oxo-1-phenylethanamine], 0.0101 to 1 nM.
